In the kinase profiling compilation of Christmann-Franck et al. (2016):

What was measured:
Assay in all cases: radiometric filter-binding kinase assay
[1] = target: MAP3K9 (human) (UniProt P80192)
[2] = tested on: AKT1 (human), P31749 [S473D]
[3] = target: DYRK1A (human) (UniProt Q13627)
[4] = target: MST4 (human) (UniProt Q9P289)
[5] = target: MELK (human) (UniProt Q14680)
[6] = tested on: AKT2 (human), P31751 [S474D]
[7] = target: STK11 CAB39 STRADA (human) (UniProt Q9Y376+Q7RTN6+Q15831)
[8] = target: MAPK8 (human) (UniProt P45983)
[9] = target: CSNK2A1 (human) (UniProt P68400)
[10] = target: DYRK3 (human) (UniProt O43781)
[11] = tested on: RPS6KB1 (human), P23443 [T412E]
Chain of RPS6KB1 (human), P23443 [T412E] (P23443 whole entry T412E, looked up): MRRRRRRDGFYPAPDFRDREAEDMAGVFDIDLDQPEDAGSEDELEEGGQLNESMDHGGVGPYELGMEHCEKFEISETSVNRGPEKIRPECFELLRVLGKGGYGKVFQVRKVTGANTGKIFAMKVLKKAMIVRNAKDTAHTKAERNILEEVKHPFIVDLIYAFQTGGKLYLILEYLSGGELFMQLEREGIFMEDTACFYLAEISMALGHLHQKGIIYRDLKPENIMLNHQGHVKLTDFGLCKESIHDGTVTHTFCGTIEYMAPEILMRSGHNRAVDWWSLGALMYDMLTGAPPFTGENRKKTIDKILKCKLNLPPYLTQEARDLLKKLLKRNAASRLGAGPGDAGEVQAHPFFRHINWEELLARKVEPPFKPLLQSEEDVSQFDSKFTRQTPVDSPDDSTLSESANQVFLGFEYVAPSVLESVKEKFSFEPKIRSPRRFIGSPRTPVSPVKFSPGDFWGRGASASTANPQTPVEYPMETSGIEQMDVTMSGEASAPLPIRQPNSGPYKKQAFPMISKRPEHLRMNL

[12] = target: RPS6KA1 KD1 KD2 (human) (UniProt Q15418)
[13] = target: NEK2 (human) (UniProt P51955)
[14] = target: MAPKAPK5 (human) (UniProt Q8IW41)
Chain of MAPKAPK5 (human) (Q8IW41 whole entry, looked up): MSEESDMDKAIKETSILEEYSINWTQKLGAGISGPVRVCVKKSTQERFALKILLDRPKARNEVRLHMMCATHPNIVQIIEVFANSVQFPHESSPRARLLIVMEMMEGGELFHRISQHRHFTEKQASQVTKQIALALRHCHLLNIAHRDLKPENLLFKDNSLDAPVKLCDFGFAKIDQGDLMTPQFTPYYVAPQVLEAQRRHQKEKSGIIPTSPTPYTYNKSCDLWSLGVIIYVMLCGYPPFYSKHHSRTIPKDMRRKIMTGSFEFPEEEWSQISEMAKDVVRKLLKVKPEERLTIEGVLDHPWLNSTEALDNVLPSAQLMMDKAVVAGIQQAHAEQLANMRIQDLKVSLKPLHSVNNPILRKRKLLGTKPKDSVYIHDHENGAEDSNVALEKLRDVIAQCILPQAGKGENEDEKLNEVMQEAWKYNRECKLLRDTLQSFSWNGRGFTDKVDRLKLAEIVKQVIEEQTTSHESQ

[15] = target: PRKACA (human) (UniProt P17612)
[16] = target: GSK3B (human) (UniProt P49841)
Chain of GSK3B (human) (P49841 whole entry, looked up): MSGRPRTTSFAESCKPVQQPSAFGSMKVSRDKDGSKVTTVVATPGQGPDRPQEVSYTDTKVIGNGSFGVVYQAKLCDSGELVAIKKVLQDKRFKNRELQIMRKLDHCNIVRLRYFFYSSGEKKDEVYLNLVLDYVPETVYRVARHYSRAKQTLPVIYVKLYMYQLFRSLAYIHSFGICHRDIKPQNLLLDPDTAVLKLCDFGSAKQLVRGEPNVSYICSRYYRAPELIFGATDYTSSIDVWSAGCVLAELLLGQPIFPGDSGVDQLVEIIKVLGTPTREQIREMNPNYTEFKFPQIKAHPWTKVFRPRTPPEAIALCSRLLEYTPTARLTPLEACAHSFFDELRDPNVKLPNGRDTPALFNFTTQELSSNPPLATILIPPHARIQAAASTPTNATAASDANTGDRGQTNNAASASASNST

[17] = target: CSK (human) (UniProt P41240)
[18] = target: PRKCA (human) (UniProt P17252)
[19] = target: STK3 (human) (UniProt Q13188)
[20] = target: CaMK1 (human) (UniProt Q14012)
[21] = target: MARK3 (human) (UniProt P27448)
Chain of MARK3 (human) (P27448 whole entry, looked up): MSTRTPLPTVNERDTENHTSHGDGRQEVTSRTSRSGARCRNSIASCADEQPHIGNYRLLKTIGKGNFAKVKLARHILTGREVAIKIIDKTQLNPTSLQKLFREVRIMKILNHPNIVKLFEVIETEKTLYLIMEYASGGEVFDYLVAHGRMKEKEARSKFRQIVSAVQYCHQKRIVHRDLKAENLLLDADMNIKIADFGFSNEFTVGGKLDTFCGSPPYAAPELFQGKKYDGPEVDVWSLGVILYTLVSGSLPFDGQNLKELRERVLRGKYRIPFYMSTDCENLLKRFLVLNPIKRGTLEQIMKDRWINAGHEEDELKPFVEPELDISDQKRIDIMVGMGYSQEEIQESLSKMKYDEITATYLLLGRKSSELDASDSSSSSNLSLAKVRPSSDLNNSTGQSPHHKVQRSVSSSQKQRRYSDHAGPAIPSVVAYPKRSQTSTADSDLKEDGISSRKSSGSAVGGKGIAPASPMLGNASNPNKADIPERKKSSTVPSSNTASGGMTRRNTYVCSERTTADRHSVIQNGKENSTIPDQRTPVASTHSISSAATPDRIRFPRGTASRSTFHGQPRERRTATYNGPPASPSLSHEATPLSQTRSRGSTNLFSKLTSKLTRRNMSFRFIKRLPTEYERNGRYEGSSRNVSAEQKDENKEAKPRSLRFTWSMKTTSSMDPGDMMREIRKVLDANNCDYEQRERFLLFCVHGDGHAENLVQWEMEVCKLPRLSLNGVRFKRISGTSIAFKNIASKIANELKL

[22] = target: CDK2 CCNA2 (human) (UniProt P20248+P24941)
[23] = target: AURKB (human) (UniProt Q96GD4)
Chain of AURKB (human) (Q96GD4 whole entry, looked up): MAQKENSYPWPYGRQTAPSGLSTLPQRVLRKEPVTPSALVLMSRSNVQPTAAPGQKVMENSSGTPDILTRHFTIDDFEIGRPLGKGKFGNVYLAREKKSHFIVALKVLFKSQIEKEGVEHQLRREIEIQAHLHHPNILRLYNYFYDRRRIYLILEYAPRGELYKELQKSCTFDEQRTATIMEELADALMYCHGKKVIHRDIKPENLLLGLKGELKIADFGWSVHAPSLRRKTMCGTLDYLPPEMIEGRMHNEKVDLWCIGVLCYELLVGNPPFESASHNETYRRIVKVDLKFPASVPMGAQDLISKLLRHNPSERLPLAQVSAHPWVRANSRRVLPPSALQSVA

[24] = target: RIPK2 (human) (UniProt O43353)
Chain of RIPK2 (human) (O43353 whole entry, looked up): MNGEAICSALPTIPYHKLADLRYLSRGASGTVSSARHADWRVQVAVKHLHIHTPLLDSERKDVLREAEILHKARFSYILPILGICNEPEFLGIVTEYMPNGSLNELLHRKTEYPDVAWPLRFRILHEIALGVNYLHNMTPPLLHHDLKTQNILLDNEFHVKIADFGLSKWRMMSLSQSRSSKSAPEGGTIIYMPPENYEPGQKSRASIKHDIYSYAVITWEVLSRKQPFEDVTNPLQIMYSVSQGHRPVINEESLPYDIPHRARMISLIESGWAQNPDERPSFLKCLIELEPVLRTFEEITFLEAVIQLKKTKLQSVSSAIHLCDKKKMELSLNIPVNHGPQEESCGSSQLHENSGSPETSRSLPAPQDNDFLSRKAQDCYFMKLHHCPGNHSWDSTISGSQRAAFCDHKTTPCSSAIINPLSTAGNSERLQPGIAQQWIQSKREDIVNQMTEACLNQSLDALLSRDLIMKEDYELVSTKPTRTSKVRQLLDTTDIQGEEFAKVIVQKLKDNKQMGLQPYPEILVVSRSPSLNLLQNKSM

[25] = target: YES1 (human) (UniProt P07947)
[26] = target: RPS6KA5 KD1 KD2 (human) (UniProt O75582)
Chain of RPS6KA5 KD1 KD2 (human) (O75582 whole entry, looked up): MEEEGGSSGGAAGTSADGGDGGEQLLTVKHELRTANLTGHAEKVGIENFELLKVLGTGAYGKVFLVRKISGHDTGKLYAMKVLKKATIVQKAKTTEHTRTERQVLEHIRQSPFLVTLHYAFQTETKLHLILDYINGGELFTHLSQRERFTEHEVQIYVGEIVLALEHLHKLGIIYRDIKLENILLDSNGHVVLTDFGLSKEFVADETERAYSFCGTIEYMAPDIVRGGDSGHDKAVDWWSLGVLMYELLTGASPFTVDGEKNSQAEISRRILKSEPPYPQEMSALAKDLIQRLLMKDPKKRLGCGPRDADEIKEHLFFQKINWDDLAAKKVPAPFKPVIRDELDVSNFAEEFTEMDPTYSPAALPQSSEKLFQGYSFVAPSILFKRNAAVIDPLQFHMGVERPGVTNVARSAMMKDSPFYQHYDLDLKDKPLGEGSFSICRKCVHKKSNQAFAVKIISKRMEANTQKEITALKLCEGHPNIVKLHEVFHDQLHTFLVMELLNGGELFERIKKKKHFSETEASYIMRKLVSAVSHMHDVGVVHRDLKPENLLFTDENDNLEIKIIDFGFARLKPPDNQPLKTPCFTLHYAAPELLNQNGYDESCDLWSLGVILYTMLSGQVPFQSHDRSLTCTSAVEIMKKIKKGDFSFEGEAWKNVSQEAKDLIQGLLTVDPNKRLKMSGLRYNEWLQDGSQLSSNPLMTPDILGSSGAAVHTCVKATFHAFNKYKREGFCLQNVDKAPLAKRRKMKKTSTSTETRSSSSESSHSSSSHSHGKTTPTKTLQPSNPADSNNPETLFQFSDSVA

[27] = target: MAPK11 (human) (UniProt Q15759)
[28] = target: MKNK1 (human) (UniProt Q9BUB5)
[29] = target: EPHA2 (human) (UniProt P29317)

Chain of AKT2 (human), P31751 [S474D] (P31751 whole entry S474D, looked up): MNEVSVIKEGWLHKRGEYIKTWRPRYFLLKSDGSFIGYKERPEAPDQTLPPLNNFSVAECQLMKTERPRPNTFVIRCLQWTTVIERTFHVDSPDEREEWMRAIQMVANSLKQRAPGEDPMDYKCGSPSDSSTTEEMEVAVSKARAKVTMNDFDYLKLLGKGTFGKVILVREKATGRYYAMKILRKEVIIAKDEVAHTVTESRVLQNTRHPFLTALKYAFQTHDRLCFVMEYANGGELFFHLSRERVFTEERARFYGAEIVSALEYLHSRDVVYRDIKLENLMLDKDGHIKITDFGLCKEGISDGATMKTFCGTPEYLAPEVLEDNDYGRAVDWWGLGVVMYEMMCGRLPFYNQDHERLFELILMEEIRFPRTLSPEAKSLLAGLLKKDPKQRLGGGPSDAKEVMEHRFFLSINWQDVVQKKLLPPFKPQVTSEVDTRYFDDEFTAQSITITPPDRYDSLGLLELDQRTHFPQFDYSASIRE
Chain of MELK (human) (Q14680 whole entry, looked up): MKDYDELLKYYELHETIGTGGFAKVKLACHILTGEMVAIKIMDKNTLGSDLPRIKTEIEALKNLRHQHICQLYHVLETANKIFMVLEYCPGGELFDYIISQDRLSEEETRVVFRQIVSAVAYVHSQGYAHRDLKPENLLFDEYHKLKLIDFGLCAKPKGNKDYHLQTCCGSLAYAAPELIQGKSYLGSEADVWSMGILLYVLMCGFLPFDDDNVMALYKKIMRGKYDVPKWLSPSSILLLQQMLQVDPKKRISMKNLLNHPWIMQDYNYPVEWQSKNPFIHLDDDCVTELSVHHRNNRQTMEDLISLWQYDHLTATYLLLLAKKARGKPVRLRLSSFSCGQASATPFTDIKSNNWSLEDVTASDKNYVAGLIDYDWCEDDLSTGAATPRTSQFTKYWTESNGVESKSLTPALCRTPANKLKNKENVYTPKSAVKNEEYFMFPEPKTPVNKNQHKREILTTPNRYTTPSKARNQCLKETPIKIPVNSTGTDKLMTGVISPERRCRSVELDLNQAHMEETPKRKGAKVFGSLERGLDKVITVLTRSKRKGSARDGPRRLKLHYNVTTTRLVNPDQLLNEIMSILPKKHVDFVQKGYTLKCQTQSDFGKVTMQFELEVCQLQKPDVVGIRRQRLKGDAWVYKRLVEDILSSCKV

residual activity ([1]; compound 0.01 µM): 110%
residual activity ([1]; compound 0.1 µM): 111%
residual activity ([1]; compound 1.0 µM): 107%
residual activity ([2]; compound 0.01 µM): 179%
residual activity ([2]; compound 0.1 µM): 117%
residual activity ([2]; compound 1.0 µM): 97%
residual activity ([3]; compound 0.01 µM): 102%
residual activity ([3]; compound 0.1 µM): 107%
residual activity ([3]; compound 1.0 µM): 103%
residual activity ([4]; compound 0.01 µM): 112%
residual activity ([4]; compound 0.1 µM): 108%
residual activity ([4]; compound 1.0 µM): 119%
residual activity ([5]; compound 0.01 µM): 115%
residual activity ([5]; compound 0.1 µM): 77%
residual activity ([5]; compound 1.0 µM): 23%
residual activity ([6]; compound 0.01 µM): 125%
residual activity ([6]; compound 0.1 µM): 118%
residual activity ([6]; compound 1.0 µM): 100%
residual activity ([7]; compound 0.01 µM): 104%
residual activity ([7]; compound 0.1 µM): 124%
residual activity ([7]; compound 1.0 µM): 100%
residual activity ([8]; compound 0.01 µM): 92%
residual activity ([8]; compound 0.1 µM): 108%
residual activity ([8]; compound 1.0 µM): 99%
residual activity ([9]; compound 0.01 µM): 103%
residual activity ([9]; compound 0.1 µM): 104%
residual activity ([9]; compound 1.0 µM): 94%
residual activity ([10]; compound 0.01 µM): 100%
residual activity ([10]; compound 0.1 µM): 103%
residual activity ([10]; compound 1.0 µM): 93%
residual activity ([11]; compound 0.01 µM): 111%
residual activity ([11]; compound 0.1 µM): 106%
residual activity ([11]; compound 1.0 µM): 100%
residual activity ([12]; compound 0.01 µM): 123%
residual activity ([12]; compound 0.1 µM): 113%
residual activity ([12]; compound 1.0 µM): 94%
residual activity ([13]; compound 0.01 µM): 118%
residual activity ([13]; compound 0.1 µM): 118%
residual activity ([13]; compound 1.0 µM): 106%
residual activity ([14]; compound 0.01 µM): 81%
residual activity ([14]; compound 0.1 µM): 92%
residual activity ([14]; compound 1.0 µM): 76%
residual activity ([15]; compound 0.01 µM): 103%
residual activity ([15]; compound 0.1 µM): 111%
residual activity ([15]; compound 1.0 µM): 98%
residual activity ([16]; compound 0.01 µM): 108%
residual activity ([16]; compound 0.1 µM): 111%
residual activity ([16]; compound 1.0 µM): 109%
residual activity ([17]; compound 0.01 µM): 103%
residual activity ([17]; compound 0.1 µM): 104%
residual activity ([17]; compound 1.0 µM): 100%
residual activity ([18]; compound 0.01 µM): 104%
residual activity ([18]; compound 0.1 µM): 105%
residual activity ([18]; compound 1.0 µM): 94%
residual activity ([19]; compound 0.01 µM): 116%
residual activity ([19]; compound 0.1 µM): 128%
residual activity ([19]; compound 1.0 µM): 112%
residual activity ([20]; compound 0.01 µM): 108%
residual activity ([20]; compound 0.1 µM): 112%
residual activity ([20]; compound 1.0 µM): 117%
residual activity ([21]; compound 0.01 µM): 113%
residual activity ([21]; compound 0.1 µM): 109%
residual activity ([21]; compound 1.0 µM): 114%
residual activity ([22]; compound 0.01 µM): 104%
residual activity ([22]; compound 0.1 µM): 101%
residual activity ([22]; compound 1.0 µM): 105%
residual activity ([23]; compound 0.01 µM): 105%
residual activity ([23]; compound 0.1 µM): 106%
residual activity ([23]; compound 1.0 µM): 83%
residual activity ([24]; compound 0.01 µM): 110%
residual activity ([24]; compound 0.1 µM): 114%
residual activity ([24]; compound 1.0 µM): 107%
residual activity ([25]; compound 0.01 µM): 122%
residual activity ([25]; compound 0.1 µM): 119%
residual activity ([25]; compound 1.0 µM): 101%
residual activity ([26]; compound 0.01 µM): 102%
residual activity ([26]; compound 0.1 µM): 100%
residual activity ([26]; compound 1.0 µM): 94%
residual activity ([27]; compound 0.01 µM): 113%
residual activity ([27]; compound 0.1 µM): 129%
residual activity ([27]; compound 1.0 µM): 109%
residual activity ([28]; compound 0.01 µM): 106%
residual activity ([28]; compound 0.1 µM): 108%
residual activity ([28]; compound 1.0 µM): 111%
residual activity ([29]; compound 0.01 µM): 110%
residual activity ([29]; compound 0.1 µM): 118%
residual activity ([29]; compound 1.0 µM): 114%
Structure (SMILES): CNc1nc(-c2ccc3c(N)n[nH]c3c2)cc(N2C[C@@H](C(=O)NC3CCCCC3)CC[C@H]2C)n1
